Assay results published in patent publication USRE37886E1, “1-(1,2-Disubstituted piperidinyl)-4-substituted piperazine derivatives” (Janssen Pharmaceuticals, N.V., priority 1995, dated 2002).

How the values were obtained:
[1] = tested on: substance-P induced relaxation of the pig coronary arteries; experiment: Antagonism of substance-P induced relaxation of the pig coronary arteries; format: cell-based; conditions: concentration at which 50% of the response to 10^−9 M substance P was inhibited, 30 minutes incubation, prostaglandin F2a precontracted segments
Procedure, shortened: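 Inverted pig coronary artery segments (endothelium outside) in Krebs-Henseleit, 37 °C, O2/CO2 95/5, precontracted with prostaglandin F2a (10^−5 M); substance P 3×10^−10 and 10^−9 M added cumulatively. Compound incubated 30 min before repeat challenge; IC50 is concentration inhibiting 50% of the relaxation to 10^−9 M substance P.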

[2] = tested on: substance P induced plasma extravasation; experiment: Antagonism of substance P induced plasma extravasation in guinea-pigs; format: in vivo; conditions: lowest active dose, female guinea-pigs; for LAD nose: compound 1 hour prior to substance P (2 mg/kg, femoral artery), blue colouring of nose 10 minutes after challenge; for LAD conjunctiva / LAD forepaws / LAD trachea / LAD urinary bladder: compound 1 hour prior to substance P; for LAD conjunctiva: blue colouring of conjunctiva 10 minutes after challenge; for LAD forepaws: blue colouring of forepaws 10 minutes after challenge; for LAD trachea: blue colouring of trachea 30 minutes after challenge; for LAD urinary bladder: blue colouring of urinary bladder 30 minutes after challenge
Procedure, shortened: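 Female guinea-pigs dosed with compound 1 hour before femoral-artery substance P (2 mg/kg) plus Evans Blue (30 mg/kg). Blue colouring of nose, forepaws and conjunctiva scored at 10 minutes, trachea and bladder at 30 minutes; value is lowest active dose (mg/kg).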

melting point [°C]	IC50 ([1]; Sus scrofa, 0.5 h) [nM]	SMILES	LAD nose [2] [mg/kg]	LAD conjunctiva [2] [mg/kg]	LAD forepaws [2] [mg/kg]	LAD trachea [2] [mg/kg]	LAD urinary bladder [2] [mg/kg]	IC50 [1] [nM]
88.1	5.63	Cc1cc(C)cc(OC(=O)C(c2ccccc2)N2CCN([C@H]3CCN(C(=O)c4cc(C(F)(F)F)cc(C(F)(F)F)c4)[C@@H](Cc4ccccc4)C3)CC2)c1 (mixture of isomers) [Compound 43, (±)-3,5-dimethylphenyl cis-4-[1-[3,5-bis(trifluoromethyl)benzoyl]-2-(phenylmethyl)-4-piperidinyl]-α-phenyl-1-piperazineacetate]	–	–	–	–	–	–
240.3	1.68	O=C(c1cc(C(F)(F)F)cc(C(F)(F)F)c1)N1CC[C@@H](N2CCN(Cc3ccccc3)CC2)C[C@@H]1Cc1ccccc1 (racemic) [Compound 17, (±)-trans-1-[3,5-bis(trifluoromethyl)benzoyl]-2-(phenylmethyl)-4-[4-(phenylmethyl)-1-piperazinyl]piperidine (E)-2-butenedioate(1:2)]	10.0	10.0	10.0	>40	10.0	–
143.8	–	O=C(c1cc(C(F)(F)F)cc(C(F)(F)F)c1)N1CC[C@H](N2CCN(Cc3ccccc3)CC2)C[C@@H]1Cc1ccccc1 (racemic) [Compound 16, (±)-cis-1-[3,5-bis(trifluoromethyl)benzoyl]-2-(phenylmethyl)-4-[4-(phenylmethyl)-1-piperazinyl]piperidine]	40.0	40.0	40.0	>40	>40	–
–	–	Cc1cccc(C)c1NC(=O)CN1CCN(C2CCN(C(=O)c3cc(C(F)(F)F)cc(C(F)(F)F)c3)C(Cc3ccc(F)c(F)c3)C2)CC1 (racemic) [Compound 135]	0.63	0.63	0.63	2.50	>40	0.01
–	0.13	Cc1cccc(C)c1NC(=O)CN1CCN([C@@H]2CCN(C(=O)c3cc(C(F)(F)F)cc(C(F)(F)F)c3)[C@@H](Cc3ccc(Cl)c(Cl)c3)C2)CC1 (racemic) [Compound 139, (±)-trans-4-[1-[3,5-bis(trifluoromethyl)benzoyl]-2-[(3,4-dichlorophenyl)methyl]-4-piperidinyl]-N-(2,6-dimethylphenyl)-1-piperazineacetamide]	2.50	2.50	2.50	2.50	2.50	–
–	–	O=C(c1cc(C(F)(F)F)cc(C(F)(F)F)c1)N1CCC(N2CCN(CCn3c(=O)[nH]c4ccccc43)CC2)CC1Cc1ccccc1 (stereo not drawn) [Compound 19]	2.50	2.50	2.50	10.0	>40	0.54
–	–	Cc1cccc(C)c1NC(=O)CN1CCN(C2CCN(C(=O)c3cc(C(F)(F)F)cc(C(F)(F)F)c3)C(Cc3ccccc3)C2)CC1 (stereo not drawn) [Compound 53]	1.25	1.25	1.25	2.50	2.50	0.35
–	–	O=C(CN1CCN(C2CCN(C(=O)c3cc(C(F)(F)F)cc(C(F)(F)F)c3)C(Cc3ccccc3)C2)CC1)NC1(c2ccccc2)CCCCC1 (stereo not drawn) [Compound 48]	2.50	2.50	2.50	2.50	2.50	0.26
–	–	Cc1ncc(Cn2c(N3CCN(C4CCN(C(=O)c5cc(C(F)(F)F)cc(C(F)(F)F)c5)C(Cc5ccccc5)C4)CC3)nc3ccccc32)o1 (racemic) [Compound 85]	2.50	2.50	2.50	2.50	10.0	0.15
–	–	Cc1cccc(C)c1NC(=O)CN1CCN(C2CCN(C(=O)c3cc(C(F)(F)F)cc(C(F)(F)F)c3)C(Cc3ccccc3)C2)CC1 (single isomer, unassigned) [Compound 42]	1.25	2.50	1.25	5.00	5.00	0.93
